Results taken from patent publication US9718770B2, “Substituted thioureas as heat shock protein 70 inhibitors” (Institute of Pharmacology and Toxicology Academy of …, priority 2013, dated 2017).

Experiments:
[1] = target: T1, Hsp70 ATPase (Homo sapiens, UniProt P0DMV8); assay: Inhibition of Hsp70 ATPase activity (malachite green); format: biochemical; conditions: for Inhibitory rate (%) on activity of Hsp70 ATPase / inhibitory rate of Hsp70 ATPase activity / inhibition at 200 µM: 200 μM; for Inhibitory rate (%) on activity of Hsp70 ATPase / inhibition at 200 µM: repeated screening carried out twice, Hsp70/Hsp40, 1 mM ATP; for dose-response relationship with respect to inhibition of Hsp70 ATPase activity: first preliminary screening, 200, 100, 50, 25 and 12.5 μM with Hsp70/Hsp40, FIGS. 1, 2; for inhibitory rate of Hsp70 ATPase activity: preliminary screening, after incubation for 30 min; for inhibition at 200 µM: read-out: Inhibitory rate (%) on activity of Hsp70 ATPase
T1 construct: made in house; host or cells: E. coli
T1 sequence (P0DMV8 2-641 limits assumed): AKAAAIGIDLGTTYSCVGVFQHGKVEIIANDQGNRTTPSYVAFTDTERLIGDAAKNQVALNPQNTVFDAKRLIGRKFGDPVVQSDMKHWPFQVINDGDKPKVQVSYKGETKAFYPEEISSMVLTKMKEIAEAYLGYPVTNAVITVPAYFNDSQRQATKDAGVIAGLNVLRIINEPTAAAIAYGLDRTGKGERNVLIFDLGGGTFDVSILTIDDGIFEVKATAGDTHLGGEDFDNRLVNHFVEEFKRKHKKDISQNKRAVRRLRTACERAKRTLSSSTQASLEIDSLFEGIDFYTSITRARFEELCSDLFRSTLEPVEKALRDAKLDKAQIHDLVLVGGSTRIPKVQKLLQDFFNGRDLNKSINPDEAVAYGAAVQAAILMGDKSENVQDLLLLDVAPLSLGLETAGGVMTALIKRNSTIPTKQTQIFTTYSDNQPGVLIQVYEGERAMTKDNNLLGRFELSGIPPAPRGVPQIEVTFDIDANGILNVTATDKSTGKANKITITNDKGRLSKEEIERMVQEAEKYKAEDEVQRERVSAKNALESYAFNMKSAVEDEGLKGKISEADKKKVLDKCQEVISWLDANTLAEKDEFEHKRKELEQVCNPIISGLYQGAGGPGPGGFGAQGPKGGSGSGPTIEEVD
Procedure: (1) Protein: Humanized Hsp70, Hsp40, expressed by E. coli.
(2) Sample to be tested: 26 compound solids with different colors and states. Positive drugs AZ (CAS:1054543-47-3) and VER 155008 (CAS: 1134156-31-2) were synthesized in the laboratory.
(4) ATPase Assay buffer: • 0.017% Triton X-100; • 100 mM Tris-HCl; • 20 mM KCl; • 6 mM MgCl2, pH 7.4.
1) 13.08 μl DnaK (0.15 mg/mL, 2.14 μM), 1.96 μl DnaJ (1 mg/mL, 25 μM) were dissolved in 7.96 μl Assay Buffer (0.017% Triton X-100, 100 mM Tris-HCl, 20 mM KCl, and 6 mM MgCl2, pH 7.4), and the resultant solution was added to each well of the 96 well plate;
2) to each well of the 96 well plate, 1 μL sample to be tested (5 mM) or DMSO (solvent) was added, and vortexed with a Vortex agitator for 10 min; and then standing at 37° C. for 30 min;
3) to each well, 1 μL 25 mM ATP was added, to trigger the enzymatic reaction; (in each well, the final reaction volume was 25 μL, the final concentration of DnaK was 1.12 μM, the final concentration of DnaJ was 1.96 μM, the final concentration of DMSO was 4%, the final concentration of Triton X-100 was 0.01%, the final concentration of ATP was 1 mM, and the final concentration of sample to be tested was 200 μM), the enzymatic reaction was carried out at 37° C. for 3 h;
4) 80 μL Malachite green staining solution was then added to each well, and was vortexed gently;
5) 10 μL of 34% citrate sodium was then added immediately, and vortexed gently, to stop the ATP hydrolysis not caused by ATPase;
6) the resultant mixture was mixed thoroughly at 37° C. for 15 min, and OD620 was measured.
The inhibitory rate of Hsp70 ATPase activity is calculated in accordance with the following formula: Inhibitory rate (%)=(DMSO well OD−Experimental well OD)/(DMSO well OD−Blank well OD)×100
Criteria for preliminary screening: during preliminary screening, an example compound is regarded as effective in inhibition as long as its inhibitory rate is above 20% for Hsp70 ATPase at 200 μM.

[2] = tested on: BT/Lap^R1.0; assay: CDI of example compounds and Lapatinib (ATPlite cell survival); format: cell-based; conditions: compound 5 μM + Lapatinib 1 μM, 72 h; secondary Lapatinib-resistant human breast cancer cells; CDI<1 synergistic
Procedure: (§1) Cells: (BT474 and SK-BR3 are Lapatinib-sensitive human breast cancer cell strains; BT/LapR and SK/LapR are secondary Lapatinib-resistant human breast cancer cell strains upon Lapatinib stimulation; MDA-MB-361 and MDA-MB-453 are natural Lapatinib-resistant human breast cancer cell strains. BT474, MDA-MB-361, SK-BR3 and MDA-MB-453 are from American Type Culture Collection (ATCC))
(§2) In a 100 mm culture dish full of adherent cells, digestion with 1 ml 0.25% pancreatin (GIBCO) was carried out at 37° C. for 5 min, and the reaction was stopped with 2 ml medium (containing 10% FBS, GIBCO). The cells were dispersed and collected. After cell count, the cells were diluted to a concentration of 1×10^5 cells/ml, and were seeded to a 96-well plate at 50 μl/well, 5000 cell/well, 60 wells in total, PBS instead of cells was added to the wells of the outmost circle, and the incubation was carried out at 37° C. for 24 h for adherence.
(§3) For the sample group, samples to be tested were diluted with DMSO to a final concentration of 5 μM; to control wells, the medium containing the same concentration of solvent corresponding to the compound was added, the concentrations of the compounds were identical in each well, 5 wells in parallel were set for each concentration, 25 μL/well, and 25 μL medium was added to each well (for the combination group, 25 μL Lapatinib was added to reach a final concentration of 1 μM). The incubation was carried out at 37° C. for 72 h.
(§4) To each well, 50 μL ATPlite kit substrate solution was added. The plate was under shaking for 3 min, and was then placed in dark for 10 min. The lysis supernatant was drawn at 100 μL/well, and placed in a luminescent plate. The incubated luminescent plate was placed in an iluminescence apparatus, and the iluminescent value was read.
(§5) Data Processing Cell survival rate (%)=Experimental group RLU/control group RLU×100%
(§6) Coefficient of drug interaction (CDI) is used to evaluate the interaction of two drugs, CDI is calculated in accordance with the following formula: CDI=AB/(A×B)×100%. The calculation is performed according to the number of live cells (luminescent value), if CDI<1, the two drugs have a synergistic effect; if CDI<0.7, the synergistic effect is very significant; if CDI=1, the effect of the two drugs in combination is the sum of the effects of the two drugs; if CDI>1, the two drugs have an antagonistic effect.

[3] = tested on: SK/Lap^R1.0; assay: as above; format: cell-based; conditions: compound 5 μM + Lapatinib 1 μM, 72 h; secondary Lapatinib-resistant human breast cancer cells; CDI<1 synergistic
Procedure: as §1, §2, §3, §4, §5, §6

[4] = tested on: BT474; assay: as above; format: cell-based; design: key: CDI = AB/(A×B); <1 synergistic; conditions: compound 5 μM + Lapatinib 1 μM, 72 h; Lapatinib-sensitive human breast cancer cells; CDI<1 synergistic, <0.7 very significant, >1 antagonistic
Procedure: as §1, §2, §3, §4, §5, §6

[5] = tested on: MDA-MB-361; assay: as above; format: cell-based; design: key: CDI = AB/(A×B); <1 synergistic; conditions: compound 5 μM + Lapatinib 1 μM, 72 h; natural Lapatinib-resistant human breast cancer cells; CDI<1 synergistic
Procedure: as §1, §2, §3, §4, §5, §6

[6] = tested on: MDA-MB-453; assay: as above; format: cell-based; design: key: CDI = AB/(A×B); <1 synergistic; conditions: compound 5 μM + Lapatinib 1 μM, 72 h; natural Lapatinib-resistant human breast cancer cells; CDI<1 synergistic
Procedure: as §1, §2, §3, §4, §5, §6

[7] = tested on: SK-BR3; assay: as above; format: cell-based; design: key: CDI = AB/(A×B); <1 synergistic; conditions: compound 5 μM + Lapatinib 1 μM, 72 h; Lapatinib-sensitive human breast cancer cells; CDI<1 synergistic
Procedure: as §1, §2, §3, §4, §5, §6

Inhibitory rate (%) on activity of Hsp70 ATPase [1]	dose-response relationship with respect to inhibition of Hsp70 ATPase activity [1]	inhibitory rate of Hsp70 ATPase activity [1]	inhibition at 200 µM [1]	Structure (SMILES)	CDI of example compounds and Lapatinib, BT/Lap^R1.0 [2]	CDI of example compounds and Lapatinib, SK/Lap^R1.0 [3]	CDI of example compounds and Lapatinib, BT474 [4]	CDI of example compounds and Lapatinib, MDA-MB-361 [5]	CDI of example compounds and Lapatinib, MDA-MB-453 [6]	CDI of example compounds and Lapatinib, SK-BR3 [7]
43.03%	dose-response relationship	38.18%	–	N#Cc1ccc(COC[C@H]2O[C@@H](n3c(NCc4ccc(Cl)c(Cl)c4)nc4c(N)ncnc43)[C@H](O)[C@@H]2O)cc1 [VER155008, reference compound]	–	–	–	–	–	–
–	–	–	19.3%	COc1cc(/C=C/C(=O)NC(NC(=S)Nc2ccccc2C)C2CC2)cc(OC)c1OC (stereo not drawn) [Example 45, (2E)-N-[cyclopropyl-(3-o-methylphenylthioureido)-methyl]-3-(3,4,5-trimethoxyphenyl) acrylamide]	0.79	1.04	1.59	0.93	0.98	1.05
–	–	–	-5.66%	COc1cc(/C=C/C(=O)NC(NC(=S)Nc2ccccn2)C2CC2)cc(OC)c1OC (stereo not drawn) [Example 30, (2E)-N-[cyclopropyl-(3-pyridin-2-ylthioureido)-methyl]-3-(3,4,5-trimethoxyphenyl) acrylamide]	0.93	0.82	0.94	0.85	1.28	0.94
–	–	–	35.8%	COc1cc(/C=C/C(=O)NC(NC(=S)NC2CCCCC2)C(C)(C)C)cc(OC)c1OC (stereo not drawn) [Example 52, (2E)-N-[1-(3-cyclohexylthioureido)-2,2-dimethylpropyl]-3-(3,4,5-trimethoxyphenyl) acrylamide]	0.86	1.11	0.56	0.92	1.18	0.88
–	–	–	4.55%	COc1cc(/C=C/C(=O)NC(NC(=S)Nc2ccccc2)C(C)(C)C)cc(OC)c1OC (stereo not drawn) [Example 26]	0.96	1.02	1.02	0.99	0.89	1.03
–	–	–	41%	Cc1ccccc1NC(=S)NC(CC(C)(C)C)NC(=O)/C=C/c1ccccc1 (stereo not drawn) [Example 46, N-[3,3-dimethyl-1-(3-o-methylphenylthioureido)butyl] cinnamamide]	0.79	1.25	0.74	0.94	1.64	1.29
–	–	–	-4.2%	CC(C)C(NC(=O)/C=C/c1ccccc1)NC(=S)Nc1ccccc1 (stereo not drawn) [Example 42, (2E)-N-[2-methyl-1-(3-phenylthioureido)propyl] cinnamamide]	0.99	0.99	0.92	0.96	1.15	1.14
–	–	–	10.5%	COc1cc(/C=C/C(=O)NC(CC(C)C)NC(=S)Nc2ccccn2)cc(OC)c1OC (stereo not drawn) [Example 31, (2E)-N-[3-methyl-1-(3-pyridin-2-ylthioureido)butyl]-3-(3,4,5-trimethoxyphenyl) acrylamide]	1.2	0.95	1.01	0.85	1.38	1
–	–	–	-0.88%	Cc1ccccc1NC(=S)NC(NC(=O)/C=C/c1ccccc1)C(C)(C)C (stereo not drawn) [Example 48, N-[2,2-dimethyl-1-(3-o-methylphenylthioureido)propyl] cinnamamide]	0.96	0.99	0.92	1.15	1.2	1.15
–	–	–	38.5%	COc1cc(/C=C/C(=O)NC(CC(C)C)NC(=S)Nc2cccnc2)cc(OC)c1OC (stereo not drawn) [Example 25, (2E)-N-[3-methyl-1-(3-pyridin-3-ylthioureido)butyl]-3-(3,4,5-trimethoxyphenyl) acrylamide]	0.97	0.93	0.94	0.93	1.2	1.04
53.04%	dose-response relationship	53.13%	–	COc1ccc(-c2nc(-c3cc(C(F)(F)F)cc(C(F)(F)F)c3)n(Cc3ccc(C(N)=O)cc3)c2-c2ccc(OC)cc2)cc1 [AZ, reference compound]	–	–	–	–	–	–
–	–	–	–	COc1cc(/C=C/C(=O)NC(NC(=S)Nc2ccccc2)C(C)C)cc(OC)c1OC (stereo not drawn) [Example 36, (2E)-N-[2-methyl-1-(3-phenylthioureido)propyl]-3-(3,4,5-trimethoxyphenyl) acrylamide]	0.96	0.94	0.97	0.98	1.3	1.07
